We go through seven compounds from patent publication US12421212B2, “Substituted benzenecarboxamides as IL-17A modulators” (DiCE Alpha, Inc., priority 2019, dated 2025).

One experiment deals with T1, IL-17A/A (Homo sapiens, UniProt Q16552).
T1 construct: purchased Genscript Z03228
T1 sequence (Q16552 24-155): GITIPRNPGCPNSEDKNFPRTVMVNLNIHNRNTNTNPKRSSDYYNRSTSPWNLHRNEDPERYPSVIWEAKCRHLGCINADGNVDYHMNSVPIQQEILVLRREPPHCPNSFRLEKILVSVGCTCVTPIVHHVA
As to the kind of experiment: IL-17A/A HEK-Blue Cell Assay. Type of experiment: cell-based. The note with it: HEK-Blue IL-17A reporter cell line, SEAP readout at A630, 20 hours incubation with IL-17A/A; top concentration 10 uM, 1 uM or 0.3 uM.
Consider `CCn1nccc1C(=O)N[C@H](C(=O)Nc1ccc([C@H](C)[C@@H](NC(=O)c2ccn(C)n2)C(=O)N2CCN(C)CC2)cc1F)C1CCCCC1` [Compound 744], for which the “IL-17A/A inhibition (pIC50)” value was “X2a (compounds were evaluated up to 1 uM and did not inhibit activity by >80%, however they showed some activity at 1 uM (less than 80% and more than 20%))”.

For the compound `CCC(=O)N[C@H](Cc1ccc(NC(=O)[C@@H](NC(=O)Cc2ccc(OC)nc2)C2CCCCC2)c(F)c1)C(=O)N1CCN(C)CC1` [Compound 711], the “IL-17A/A inhibition (pIC50)” value is “X2a (compounds were evaluated up to 1 uM and did not inhibit activity by >80%, however they showed some activity at 1 uM (less than 80% and more than 20%))”.

Consider `CCC(=O)N[C@H](Cc1ccc(NC(=O)[C@@H](NC(=O)c2cnc(C(=O)NCC(F)F)[nH]2)C2CCCCC2)c(F)c1)C(=O)N1CCN(C)CC1` [Compound 783], for which the “IL-17A/A inhibition (pIC50)” value is “X1b (compounds were evaluated up to 10 uM and inhibited activity at 10 uM by less than 20%)”.

The experiment is the same for the next values; noted with them: HEK-Blue IL-17A reporter cell line, SEAP readout at A630, 20 hours incubation with IL-17A/A; top concentration 10 uM, 1 uM or 0.3 uM; read-out: IL-17A/A inhibition (pIC50) (converted).
Consider `CCC(=O)N[C@@H](C(=O)N1CCN(C)CC1)[C@@H](C)c1ccc(NC(=O)C(NC(=O)C(F)(F)C2CCCCC2)[C@H]2CC[C@H](C)CC2)c(F)c1` (stereo partly shown) [Compound 419], for which the IC50 is 10 to 100 nM.

As for `CCC(=O)N[C@@H](C(=O)N1CCN(Cc2ccccn2)CC1)[C@@H](C)c1ccc(NC(=O)[C@@H](NC(=O)c2nonc2CC)[C@H]2CC[C@H](C)CC2)c(F)c1` [Compound 450], the IC50 was under 10 nM.

With `CCC(=O)N[C@@H](C(=O)N1CCSCC1)[C@@H](C)c1ccc(NC(=O)[C@@H](NC(=O)c2ccnn2CC)[C@H]2CC[C@H](C)CC2)c(F)c1` [Compound 371], the IC50 is 10 to 100 nM.

For the compound `CCC(=O)N[C@H](Cc1ccc(NC(=O)[C@@H](NC(=O)c2ccnn2C(C)C)C2CCC(F)(F)CC2)c(F)c1)C(=O)N1CCN(C)CC1` [Compound 672], the IC50 is 100 to 10000 nM.
